# Assay results taken from paper PMC10059083, “Design, Synthesis, and Biological Evaluation of Novel Hydroxamic Acid-Based Organoselenium Hybrids” (Pharmaceuticals, 2023).
# Like-named read-outs stand apart in the source and are kept apart here.
# Assays:
# C. albicans [1] = assay: Agar diffusion assay, C. albicans; format: cell-based, Candida albicans; details: for zone of inhibition at 20 µM: Candida albicans, read-out: C. albicans ZID (inhibition zone diameter); for C. albicans IA% (activity index): ratio of inhibition zone of compound to that of positive control (clotrimazole)
# C. albicans [2] = assay: MIC by microdilution, C. albicans; format: cell-based; details: Candida albicans; microdilution method; read-out: MIC C. albicans
# Source text: (§1) The encouraging antitumor properties of the OSe compounds motivated us to evaluate their corresponding antimicrobial activities against the C. albicans fungal strain, S. aureus Gram-positive bacteria, and E. coli Gram-negative bacteria. Therefore, we applied the agar diffusion and minimum inhibitory concentration (MIC) methods using clotrimazole antifungal and ampicillin antibacterial drugs as standards.
# (§2) The products’ antimicrobial properties were examined according to the previously reported method, via agar well diffusion assay against E. coli, S. aureus, and C. albicans. A microdilution method was also used to record MICs (M), following the previously reported procedure. Experimental details can be found in the Supplementary Materials.
# Briefly, a concentration of 1 mM was prepared for each compound by dissolving in DMSO. Paper discs of standard size […] were sterilized in an autoclave and soaked in 9 µL of the test compounds, and placed in the Petri dishes, which in turn contain a nutrient media (agar 9 g, peptone 5 g, and beef extract 3 g) seeded with the dedicated strain. Incubation lasted for 13 h at 36 0C. […]
# HepG2 cells = assay: MTT antiproliferative assay, HepG2 cells; format: cell-based; details: for IC50: Homo sapiens, HepG2, 24 h, read-out: HepG2 IC50; for HepG2 TI (therapeutic index): ratio of IC50 against WI38 cells to IC50 against HepG2 cells
# Source text: (§3) Recently, OSe agents have attracted interest due to their potential chemoprotective and antitumor properties. We have developed several OSe compounds with promising antioxidant, antimicrobial, and antitumor properties. Therefore, we estimated the OSe agents’ antiproliferative activities against different cancer cells, i.e., MCF-7 and HepG2 cells and healthy lung fibroblast WI-38 cells, using the MTT assay. The drug doxorubicin was employed as the standard. The corresponding therapeutic indices (TI) are described as the proportion of the WI38 cells IC50 to the IC50 of the cancer cell (e.g., MCF-7 and HepG2) (Table 1).
# (§4) The products’ anticancer activity was examined using the MTT assay against breast (MCF-7) carcinoma cells, liver (HepG2), and normal WI-38 cells, following the previously reported method. Experimental details can be found in the Supplementary Materials.
# (§5) 1.1. The biological assays
# (§6) 1.1.1. The anticancer activity
# (§7) The breast adenocarcinoma (MCF-7), Hepatocellular carcinoma (HEPG-2), and normal fibroblast (WI-38) cells were obtained from ATCC via Holding company for biological products and vaccines (VACSERA), Cairo, Egypt. The reagents […] medium, MTT, DMSO, and fetal bovine serum was obtained from Sigma Aldrich. Dulbecco’s modified Eagle’s medium was used as the culture medium for the cells, and the cytotoxicity was evaluated using the reported MTT assay. Doxorubicin was used as the positive reference, and the IC50 values were obtained from the corresponding dose-response curve.
# (§8) This colorimetric assay is based on converting the yellow tetrazolium bromide (MTT) to a purple formazan derivative by mitochondrial succinate dehydrogenase in viable cells. Cell lines were cultured in […] medium with 10% fetal bovine serum. Antibiotics added were 100 units/ml penicillin and 100µg/ml streptomycin at 37 C in a 5% Co2 incubator. The cell lines were seeded in a 96-well plate at a density of 1.0x10^4 cells/well. at 37 C for 48 h under 5% Co2. After incubation, the cells were treated with different concentrations of compounds and incubated for 13 […]
# Finally, dimethyl sulfoxide (DMSO) in the volume of 100 µl is added to each well to dissolve the purple formazan formed. The colorimetric assay is measured and recorded at an absorbance of 570 nm using a plate reader (EXL 800, USA). The percentage of the relative cell viability was calculated as (A570 of treated samples/A570 of the untreated sample) X 100. […]
# MCF-7 cells = assay: MTT antiproliferative assay, MCF-7 cells; format: cell-based; details: for IC50: Homo sapiens, MCF7, 24 h, read-out: MCF7 IC50; for MCF7 TI (therapeutic index): ratio of IC50 against WI38 cells to IC50 against MCF-7 cells
# Source text: as §3, with “We have developed several OSe compounds with promising antioxidant, antimicrobial, and antitumor properties.” left out
# as §4, §5, §6, §7, §8
# (§9) Finally, dimethyl sulfoxide (DMSO) in the volume of 100 µl is added to each well to dissolve the purple formazan formed. The colorimetric assay is measured and recorded at an absorbance of 570 […]
# (§10) The percentage of the relative cell viability was calculated as (A570 of treated samples/A570 of the untreated sample) X 100. […]
# S. aureus [3] = assay: Agar diffusion assay, S. aureus; format: cell-based; details: Staphylococcus aureus; 6-mm disks soaked with 20 μM of the OSe agents; read-out: S. aureus ZID (inhibition zone diameter)
# S. aureus [4] = assay: Agar diffusion assay, S. aureus; format: cell-based, Staphylococcus aureus; design: concentration or dose not given beside the values; details: ratio of inhibition zone of compound to that of positive control (ampicillin)
# Source text: as §1
# as §2, with “Materials. […]” for “Materials.”
# 1.1.2. The antimicrobial activity
# The antimicrobial activities of the OSe compounds were evaluate d against C. albicans yeast as well as E. coli gram-negative and S. aureus gram-positive bacteria employing the agar well diffusion assay.
# Briefly, a concentration of 1 mM was prepared for each compound by dissolving in DMSO. Paper discs of standard size […] were sterilized in an autoclave and soaked in 9 µL of the test compounds, and placed in the Petri dishes, which in turn contain a nutrient media (agar 9 g, peptone 5 g, and beef extract 3 g) seeded with the dedicated strain. Incubation lasted for 13 h at 36 0C.
# Experiments were replicated three times and the antifungal clotrimazole and antibiotic ampicillin […]
# [5] = DPPH radical scavenging assay; details: for antioxidant (scavenging) activity in the DPPH assay: compounds 200 µL, 1 mM in MeOH, DPPH 400 µL, 30 min, absorbance at 517 nm
# Method: (§11) The antioxidant activities of the OSe compounds were intensively investigated because these are usually the cause of their chemopreventive potency. Their redox activities were evaluated via DPPH and ABTS assays, using ascorbic acid as the standard. We spectrophotometrically measured the antioxidant efficiency of the OSe compounds by their ability to decolorise the DPPH^. and ABTS^. radicals at […] (Figure 2).
# (§12) The compounds’ antioxidant properties were assessed by in vitro bioassays using DPPH and ABTS, following the reported method. Details are in the Supplementary Materials.
# (§13) Figure 4 Estimation of the OSe compounds’ redox activities via DPPH and ABTS experiments. All tests are mean ± S.D. ABTS experiment: absorbance was followed at 734 nm for OSe compounds (50 µL, 1 mM in MeOH) and ABTS solution (60 µL). DPPH Absorbance was monitored at 517 nm for OSe compounds (200 µL, 1 mM in MeOH) and DPPH (400 µL) after 30 min. […]
# 1.1.3. The antioxidant activity
# 1.1.3.1. The DPPH bioassay
# The hydrogen atom or electron donation ability of the corresponding compounds was measured by estimating the bleaching of the purple color of a methanolic solution of DPPH [5]. This spectrophotometric assay uses stable DPPH. reagent. The sample was prepared by adding […] of the OSe compounds (1 mM in methanol) to […] DPPH in methanol. After 30 min of incubation in the dark, the absorbance was read against a blank at […]. Ascorbic acid (vitamin C) and ebselen were used as standard antioxidants (positive control). A blank sample was run without DPPH. A negative control sample was run using methanol instead of the sample. The radical scavenging activity was calculated using the following equation:
# Inhibition%= (Ablank-Asample)/(Ablank)*100. […]
# [6] = ABTS radical scavenging assay; details: for antioxidant (scavenging) activity in the ABTS assay: compounds 50 µL, 1 mM in MeOH, ABTS solution 60 µL, absorbance at 734 nm
# Method: as §11, §12, §13
# 1.1.3.2. The ABTS bioassay
# The antioxidant activity of the investigated compounds was assessed using 2,2’-azino-bis(3-ethylbenzothiazoline-6-sulphonic acid (ABTS) method. The radical cation derived from ABTS was prepared by the reaction of 60 mM ABTS solution with 0.3 M manganese dioxide solution in 0.1M phosphate buffer, pH 7. Then, the mixture was shaken, centrifuged, filtered, and the absorbance (Acontrol ) of […]
# the resulting green-blue solution (ABTS radical solution) was measured at wavelength 734 nm. Then, […] of 1 mg/ml test compound in phosphate-buffered methanol was added. The absorbance (Atest) was measured. The reduction in color intensity was expressed as % inhibition. The % inhibition for each […]
# compound is calculated from the following equation
# Inhibition% = (Acontrol-Asample)/(Acontrol)*100
# Ascorbic acid (vitamin C) was used as a standard antioxidant (positive control). A blank sample was run […]
# without ABTS and using MeOH/phosphate buffer (1:1) instead of the sample. A negative control sample […]
# was run with MeOH/phosphate buffer (1:1) instead of a tested compound.
# WI-38 cells = assay: MTT cytotoxicity assay, normal lung fibroblast WI-38 cells; format: cell-based; details: Homo sapiens, WI-38, 24 h, read-out: WI38 IC50
# Source text: as §3, with “We have developed several OSe compounds with promising antioxidant, antimicrobial, and antitumor properties.” left out
# as §4, §5, §6, §7, §8, §9, §10
SMILES,zone of inhibition at 20 µM (C. albicans [1]; 6-mm disks soaked with 20 μM of the OSe agents),C. albicans IA% (activity index) (C. albicans [1]),MIC (C. albicans [2]),IC50 (HepG2 cells),HepG2 TI (therapeutic index) (HepG2 cells),IC50 (MCF-7 cells),MCF7 TI (therapeutic index) (MCF-7 cells),zone of inhibition at 20 µM (S. aureus [3]),S. aureus IA% (activity index) (S. aureus [4]),antioxidant (scavenging) activity in the DPPH assay [5],zone of inhibition at 20 µM (C. albicans [1]),antioxidant (scavenging) activity in the ABTS assay [6],IC50 (WI-38 cells),"IC50 ([5]; concentration causing 50% decrease in absorbance, DPPH assay)","IC50 ([6]; concentration causing 50% decrease in absorbance, ABTS assay)"
"Clc1ccccc1C(c1ccccc1)(c1ccccc1)n1ccnc1 [Clotrimazole, clotrimazole, reference compound]",24 mm,100%,2 µM,–,–,–,–,–,–,–,–,–,–,–,–
"O=CNc1ccc([Se]CC(=O)NOCc2ccccc2)cc1 [Compound 10, N-(benzyloxy)-2-((4-formamidophenyl)selanyl)acetamide]",–,29.2%,–,83.4 ± 4.2 µM,0.5,49.3 ± 3.1 µM,0.8,6 mm,28.6%,64.2%,7 mm,64.7%,37.4 ± 2.6 µM,–,–
"O=C(C[Se]c1ccc(N2C(=O)c3ccccc3C2=O)cc1)NOCc1ccccc1 [Compound 13, N-(benzyloxy)-2-((4-(1,3-dioxoisoindolin-2-yl)phenyl)selanyl)acetamide]",–,8.3%,–,> 100 µM,0.6,91.6 ± 4.6 µM,0.8,–,–,89.4%,2 mm,87.0%,61.6 ± 3.8 µM,–,–
"O=C1O[C@H]([C@@H](O)CO)C(O)=C1O [Vitamin C, ascorbic acid, reference compound]",–,–,–,–,–,–,–,–,–,94.5%,–,88.4%,–,19.18 ± 0.13 µM,28.16 ± 0.19 µM
